pIC50: −log10 of the molar value. Where two headings read alike, the source gives them in different places.
Tests used:
[1] = molecular target: T1, full-length beta-Catenin (Uniprot ID P35222) (Homo sapiens, UniProt P35222); test: Fluorescence polarization IC50 (beta-catenin / 5FAM-TCF4 10-53 competition); format: binding
T1 construct: 10 nM full-length beta-Catenin (Uniprot ID P35222)
T1 sequence (P35222 1-781): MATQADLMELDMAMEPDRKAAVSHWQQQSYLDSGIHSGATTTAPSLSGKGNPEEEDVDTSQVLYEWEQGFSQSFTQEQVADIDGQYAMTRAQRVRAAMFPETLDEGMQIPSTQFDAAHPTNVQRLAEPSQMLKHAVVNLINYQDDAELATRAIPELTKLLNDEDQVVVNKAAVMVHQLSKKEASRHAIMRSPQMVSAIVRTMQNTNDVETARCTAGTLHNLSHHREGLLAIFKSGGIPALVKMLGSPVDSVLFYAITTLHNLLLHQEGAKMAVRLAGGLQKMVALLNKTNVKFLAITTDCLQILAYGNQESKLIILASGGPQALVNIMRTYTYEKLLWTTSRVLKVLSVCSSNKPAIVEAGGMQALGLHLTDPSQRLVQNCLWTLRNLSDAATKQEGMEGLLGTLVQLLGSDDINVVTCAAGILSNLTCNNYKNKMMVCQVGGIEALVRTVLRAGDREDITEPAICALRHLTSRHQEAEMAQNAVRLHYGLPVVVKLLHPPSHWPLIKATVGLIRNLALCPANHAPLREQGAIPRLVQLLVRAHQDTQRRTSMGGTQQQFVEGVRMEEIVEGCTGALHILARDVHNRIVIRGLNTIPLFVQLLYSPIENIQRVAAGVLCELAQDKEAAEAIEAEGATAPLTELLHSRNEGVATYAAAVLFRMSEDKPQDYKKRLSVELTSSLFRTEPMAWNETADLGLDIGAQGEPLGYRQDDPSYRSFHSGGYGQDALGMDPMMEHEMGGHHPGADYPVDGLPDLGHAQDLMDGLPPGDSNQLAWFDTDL

[2] = molecular target: T2, beta-catenin/TCF4 engagement (Homo sapiens, UniProt P35222); test: Nano-BRET target engagement assay (B-cat-Halo & TCF4-Luc in HEK293 cells); format: cell-based; settings: read-out: NanoBRET Abs IC50
T2 construct: expressed in transfected cells; host or cells: HEK293
T2 sequence (P35222 1-781): T1 sequence (P35222 1-781)

[3] = fluorescence polarization, read-out: beta-Catenin FP IC50

## CC(=O)N1CCC[C@]12CC=CCCCC1(CCCC=CCCCOC(=O)N3CC[C@@](C(=O)N[C@@H](Cc4ccsc4)C(=O)N[C@@H](Cc4csc5ccccc45)C(=O)N[C@@H](CCC(N)=O)C(N)=O)(C3)NC(=O)[C@H](CC(C)C)NC(=O)[C@H](Cc3ccccc3)NC(=O)[C@H](C)NC(=O)[C@H](C)NC(=O)[C@H](CN(CC(=O)O)CC(F)(F)F)NC(=O)[C@H](CC(=O)O)NC1=O)NC(=O)[C@H](CCC(C)(C)C)NC(=O)[C@H](CC(=O)O)NC2=O (stereo partly drawn) [I-1772, Ac-PL3-Asp-Npa-B5-Asp-TfeGA-Ala-Ala-Phe-Leu-PyrS2-3Thi-BztA-Gln-NH2]
[1]; [3]
  pIC50: 7.85
[2]; absolute IC50
  pIC50: 5.17

## CC(=O)N1CCC[C@]12CC=CCCCC1(CCCC=CCCCCCC[C@@](C)(C(=O)N[C@@H](Cc3ccccc3)C(=O)N[C@@H](Cc3csc4ccccc34)C(=O)N[C@@H](CCC(N)=O)C(N)=O)NC(=O)[C@H](CCO)NC(=O)[C@H](Cc3ccccc3)NC(=O)[C@H](C)NC(=O)[C@H](C)NC(=O)[C@H](CCC(=O)O)NC(=O)[C@H](CC(=O)O)NC1=O)NC(=O)[C@H](CC(N)=O)NC(=O)[C@H](CC(=O)O)NC2=O (stereo partly drawn) [I-1535, Ac-PL3-Asp-Asn-B5-Asp-Glu-Ala-Ala-Phe-Hse-S8-Phe-BztA-Gln-NH2]
[1]; [3]
  pIC50: 7.14
[2]; absolute IC50
  pIC50: < 4.70

## CC(=O)N1CCC[C@]12CC=CCCCC1(CCCC=CCCCOC(=O)N3CC[C@@](C(=O)N[C@@H](Cc4ccsc4)C(=O)N[C@@H](Cc4csc5ccccc45)C(=O)N[C@@H](CCC(N)=O)C(N)=O)(C3)NC(=O)[C@H](CC(C)C)NC(=O)[C@H](Cc3ccccc3)NC(=O)[C@H](C)NC(=O)[C@H](C)NC(=O)[C@H](CC(=O)O)NC(=O)[C@H](CC(=O)O)NC1=O)NC(=O)[C@H](CCCCNC(=O)COCCOCCNC(=O)C13CC4(C)CC(C)(CC(C)(C4)C1)C3)NC(=O)[C@H](CC(=O)O)NC2=O (stereo partly drawn) [I-1472, Ac-PL3-Asp-[Me3AdamantC-PEG2]-Lys-B5-Asp-Asp-Ala-Ala-Phe-Leu-PyrS2-3Thi-BztA-Gln-NH2]
[1]; [3]
  pIC50: 7.92
[2]; absolute IC50
  pIC50: < 4.70

## CC(=O)N1CCC[C@]12CC=CCCCC1(CCCC=CCCCOC(=O)N3CC[C@@](C(=O)N[C@@H](Cc4ccccc4C(F)(F)F)C(=O)N[C@@H](Cc4csc5ccccc45)C(=O)N[C@@H](C)C(N)=O)(C3)NC(=O)[C@H](CC(C)C)NC(=O)[C@H](Cc3ccccc3)NC(=O)[C@H](C)NC(=O)[C@H](CO)NC(=O)[C@H](Cc3cccc(C(=O)O)c3)NC(=O)[C@H](CC(=O)O)NC1=O)NC(=O)[C@H](CC(C)(C)C)NC(=O)[C@H](CC(=O)O)NC2=O (stereo partly drawn) [I-2059, Ac-PL3-Asp-Npg-B5-Asp-3COOHF-Ser-Ala-Phe-Leu-PyrS2-2F3MeF-BztA-Ala-NH2]
[1]; [3]
  pIC50: 7.42
[2]
  pIC50: 5.32

## CC(=O)N1CCC[C@]12CC=CCCCC1(CCCC=CCCCOC(=O)N3CC[C@@](C(=O)N[C@@H](Cc4ccsc4)C(=O)N[C@@H](Cc4csc5ccccc45)C(=O)N[C@@H](CCC(N)=O)C(N)=O)(C3)NC(=O)[C@H](CC(C)C)NC(=O)[C@H](Cc3ccccc3)NC(=O)[C@H](C)NC(=O)[C@H](C)NC(=O)[C@H](CCCC(=O)O)NC(=O)[C@H](CC(=O)O)NC1=O)NC(=O)[C@H](CC(C)(C)C)NC(=O)[C@H](CC(=O)O)NC2=O (stereo partly drawn) [I-1438, Ac-PL3-Asp-Npg-B5-Asp-Aad-Ala-Ala-Phe-Leu-PyrS2-3Thi-BztA-Gln-NH2]
[1]; [3]
  pIC50: 8.30
[2]; absolute IC50
  pIC50: 5.13

## CCCC[C@@H]1NC(=O)[C@H](CC(=O)O)NC(=O)[C@]2(CC=CCCCC3(CCCC=CCCCOC(=O)N4CC[C@@](C(=O)N[C@@H](Cc5ccsc5)C(=O)N[C@@H](Cc5csc6ccccc56)C(=O)N[C@@H](CC(C)C)C(N)=O)(C4)NC(=O)[C@H](CC(C)C)NC(=O)[C@H](Cc4ccccc4)NC(=O)[C@H](C)NC(=O)[C@H](C)NC(=O)[C@H](CC(=O)O)NC(=O)[C@H](CC(=O)O)NC3=O)NC1=O)CCCN2C(C)=O (stereo partly drawn) [I-1411, Ac-PL3-Asp-nLeu-B5-Asp-Asp-Ala-Ala-Phe-Leu-PyrS2-3Thi-BztA-Leu-NH2]
[1]; fluorescence polarization, beta-catenin, read-out: FP EC50
  pIC50: 6.96
[1]; [3]
  pIC50: 6.96
[2]; absolute IC50
  pIC50: 4.33

## CC(=O)N1CCC[C@]12CC=CCCCC1(CCCC=CCCCOC(=O)N3CC[C@@](C(=O)N[C@@H](Cc4ccsc4)C(=O)N[C@@H](Cc4csc5ccccc45)C(=O)N[C@@H](C)C(N)=O)(C3)NC(=O)[C@H](CC(C)C)NC(=O)[C@H](Cc3ccccc3)NC(=O)[C@H](C)NC(=O)[C@H]([C@@H](C)O)NC(=O)[C@H](Cc3cccc(C(=O)O)c3)NC(=O)[C@H](CC(=O)O)NC1=O)NC(=O)[C@H](CC(C)(C)C)NC(=O)[C@H](CC(=O)O)NC2=O (stereo partly drawn) [I-2051, Ac-PL3-Asp-Npg-B5-Asp-3COOHF-Thr-Ala-Phe-Leu-PyrS2-3Thi-BztA-Ala-NH2]
[1]; [3]
  pIC50: 7.80
[2]
  pIC50: 5.08

## CC(=O)N1CCC[C@]12CC=CCCCC1(CCCC=CCCCOC(=O)N3CC[C@@](C(=O)N[C@@H](Cc4ccsc4)C(=O)N[C@@H](Cc4csc5ccccc45)C(=O)NC(CCCCNC(=O)c4ccc5c(c4)B(O)OC5)C(N)=O)(C3)NC(=O)[C@H](CC(C)C)NC(=O)[C@H](Cc3ccccc3)NC(=O)[C@H](C)NC(=O)[C@H](C)NC(=O)[C@H](CN(CC(=O)O)CC(F)(F)F)NC(=O)[C@H](CC(=O)O)NC1=O)NC(=O)[C@H](CC(C)(C)C)NC(=O)[C@H](CC(=O)O)NC2=O (stereo partly drawn) [I-2187, Ac-PL3-Asp-Npg-B5-Asp-TfeGA-Ala-Ala-Phe-Leu-PyrS2-3Thi-BztA-BnBoroleK-NH2]
[1]; read-out: beta-Catenin FP IC50
  pIC50: 7.55
[2]
  pIC50: 4.97

## CC(=O)N1CCC[C@]12CC=CCCCC1(CCCC=CCCCOC(=O)N3CC[C@@](C(=O)N[C@@H](Cc4ccsc4)C(=O)N[C@@H](Cc4csc5ccccc45)C(=O)N[C@@H](C)C(N)=O)(C3)NC(=O)[C@H](C)NC(=O)[C@H](Cc3ccccc3)NC(=O)[C@H](C)NC(=O)[C@H](CCC(N)=O)NC(=O)[C@H](Cc3cccc(C(=O)O)c3)NC(=O)[C@H](CC(=O)O)NC1=O)NC(=O)[C@H](CC(C)(C)C)NC(=O)[C@H](CC(=O)O)NC2=O (stereo partly drawn) [I-2053, Ac-PL3-Asp-Npg-B5-Asp-3COOHF-Gln-Ala-Phe-Ala-PyrS2-3Thi-BztA-Ala-NH2]
[1]; [3]
  pIC50: 7.96
[2]
  pIC50: 5.30

## CC(=O)N1CCC[C@]12CC=CCCCC1(CCCC=CCCCOC(=O)N3CC[C@@](C(=O)N[C@@H](Cc4ccccc4C(F)(F)F)C(=O)N[C@@H](Cc4csc5ccccc45)C(=O)N[C@@H](C)C(N)=O)(C3)NC(=O)[C@H](CC(C)C)NC(=O)[C@H](Cc3ccccc3)NC(=O)[C@H](C)NC(=O)[C@H](CCC(=O)N3CCN(CCCN(C)C)CC3)NC(=O)[C@H](Cc3cccc(C(=O)O)c3)NC(=O)[C@H](CC(=O)O)NC1=O)NC(=O)[C@H](CC(C)(C)C)NC(=O)[C@H](CC(=O)O)NC2=O (stereo partly drawn) [I-2323, Ac-PL3-Asp-Npg-B5-Asp-3COOHF-[Me2NPrPip]GlnR-Ala-Phe-Leu-PyrS2-2F3MeF-BztA-Ala-NH2]
[1]; [3]
  pIC50: 8.22
[2]; absolute IC50
  pIC50: 4.75

## CCN(CC)C(=O)[C@H](CCC(N)=O)NC(=O)[C@H](Cc1csc2ccccc12)NC(=O)[C@H](Cc1ccsc1)NC(=O)[C@]12CCN(C1)C(=O)OCCCC=CCCCC1(CCCC=CC[C@]3(CCCN3C(C)=O)C(=O)N[C@@H](CC(=O)O)C(=O)N[C@@H](CC(C)(C)C)C(=O)N1)C(=O)N[C@@H](CC(=O)O)C(=O)N[C@@H](CN(CC(=O)O)CC(F)(F)F)C(=O)N[C@@H](C)C(=O)N[C@@H](C)C(=O)N[C@@H](Cc1ccccc1)C(=O)N[C@@H](CC(N)=O)C(=O)N2 (stereo partly drawn) [I-1641, Ac-PL3-Asp-Npg-B5-Asp-TfeGA-Ala-Ala-Phe-Asn-PyrS2-3Thi-BztA-Gln-NEt2]
[2]; absolute IC50
  pIC50: 4.83

## CC(=O)N1CCC[C@]12CC=CCCCC1(CCCC=CCCCCCC[C@@](C)(C(=O)N[C@@H](Cc3ccccc3)C(=O)N[C@@H](Cc3csc4ccccc34)C(=O)N[C@@H](CCC(N)=O)C(N)=O)NC(=O)[C@H](CCO)NC(=O)[C@H](Cc3ccccc3)NC(=O)[C@H](C)NC(=O)[C@H](C)NC(=O)[C@H](CCC(=O)O)NC(=O)[C@H](CC(=O)O)NC1=O)NC(=O)[C@H](CO)NC(=O)[C@H](CC(=O)O)NC2=O (stereo partly drawn) [I-1529, Ac-PL3-Asp-Ser-B5-Asp-Glu-Ala-Ala-Phe-Hse-S8-Phe-BztA-Gln-NH2]
[2]; absolute IC50
  pIC50: < 4.70

## CC(=O)N1CCC[C@]12CC=CCCCC1(CCCC=CCCCOC(=O)N3CC[C@@](C(=O)N[C@@H](Cc4ccsc4)C(=O)N[C@@H](Cc4csc5ccccc45)C(=O)N[C@@H](CCC(N)=O)C(N)=O)(C3)NC(=O)[C@H](CC(N)=O)NC(=O)[C@H](Cc3ccccc3)NC(=O)[C@H](C)NC(=O)C3(CC3)NC(=O)[C@H]([C@@H](C)O)NC(=O)[C@H](CC(N)=O)NC1=O)NC(=O)[C@H](CC(C)(C)C)NC(=O)[C@H](CC(=O)O)NC2=O (stereo partly drawn) [I-2492, Ac-PL3-Asp-Npg-B5-Asn-Thr-Cpg-Ala-Phe-Asn-PyrS2-3Thi-BztA-Gln-NH2]
[2]; absolute IC50
  pIC50: < 4.70
